Literature values as cited in US20190167598A1, “A NOVEL TREATMENT REGIMEN INVOLVING SAPROPTERIN DIHYDROCHLORIDE” (DIPHARMA S.A., priority 2016, published 2019).

How the values were obtained:
[1] = neutral or basic conditions
[2] = in vivo

oxidation into dihydrobiopterin [1]: readily oxidized
sapropterin elimination half-life time [2]: about 4 h
Compound: C[C@H](O)[C@H](O)[C@H]1CNc2[nH]c(N)nc(=O)c2N1.Cl.Cl [sapropterin, (6R)-2-amino-6-[(1R,2S)-1,2-dihydroxypropyl]-5,6,7,8-tetrahydropteridin-4(1H)-one dihydrochloride]
